Measured values as given in publication PMC9376891 (Nature Communications, 2022).

Target: Rae1_31-368-Nup98_157-213 heterodimer (Rae1-Nup98 complex) (Homo sapiens, UniProt P52948+P78406)
Experiment: biochemical
Type: binding

Chain of Rae1_31-368-Nup98_157-213 heterodimer (Rae1-Nup98 complex) (P78406 31-368 limits assumed): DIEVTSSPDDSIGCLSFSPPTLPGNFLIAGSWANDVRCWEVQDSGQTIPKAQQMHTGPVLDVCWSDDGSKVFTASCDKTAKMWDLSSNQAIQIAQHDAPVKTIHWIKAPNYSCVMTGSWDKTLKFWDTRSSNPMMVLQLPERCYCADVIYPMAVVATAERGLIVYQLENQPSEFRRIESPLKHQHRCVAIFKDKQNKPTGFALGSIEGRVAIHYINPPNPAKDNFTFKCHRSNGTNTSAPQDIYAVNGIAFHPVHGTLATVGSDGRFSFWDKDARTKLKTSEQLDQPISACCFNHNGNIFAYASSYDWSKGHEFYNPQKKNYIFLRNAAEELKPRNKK
Chain of Rae1_31-368-Nup98_157-213 heterodimer (Rae1-Nup98 complex) (P52948 157-213 partner limits assumed): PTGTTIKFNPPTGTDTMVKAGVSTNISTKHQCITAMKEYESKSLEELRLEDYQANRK

Which Kd does the source give for `CC[C@H](C)[C@H](NC(=O)[C@H](CCC(=O)O)NC(=O)[C@H](CCSC)NC(=O)[C@@H]1CCCN1C(=O)[C@H](CCC(N)=O)NC(=O)[C@H](CCC(=O)O)NC(=O)[C@H](CCC(=O)O)NC(=O)[C@H](CC(=O)O)NC(=O)[C@H](CC(C)C)NC(=O)[C@H](CCC(N)=O)NC(=O)[C@H](CO)NC(=O)[C@@H](N)Cc1ccc(O)cc1)C(=O)N[C@@H](CC(=O)O)C(=O)N[C@@H](Cc1ccc(O)cc1)C(=O)N1CCC[C@H]1C(=O)O` [SARS-CoV-2 ORF6 C3 + YP] here?
Its Kd is 200 nM.
